Assay results published in article PMC7280082 (Acta Pharmaceutica Sinica. B, 2019).

Experiments:
[1] = Cytotoxicity in mock-infected MT-4 cell cultures, MTT method; details: human, mock-infected MT-4 cells
WT HIV-1 RT = WT HIV-1 RT (Human immunodeficiency virus type 1 group M subtype B, UniProt P03366); assay: Recombinant HIV-1 RT inhibitory assay; type: biochemical
[2] = system: HIV-1 E138K mutant strain; assay: microbe, parasite or virus in culture; type: cell-based; details: for SI E138K: CC50/EC50; for EC50: Human immunodeficiency virus 1, MT4, read-out: EC50 E138K; for RF E138K: ratio of EC50 (resistant viral strain)/EC50 (wild-type viral strain)
[3] = system: HIV-1 Y181C mutant strain; assay: microbe, parasite or virus in culture; type: cell-based; details: for SI Y181C: CC50/EC50; for EC50: Human immunodeficiency virus 1, MT4, read-out: EC50 Y181C; for RF Y181C: ratio of EC50 (resistant viral strain)/EC50 (wild-type viral strain)
WT HIV-1 (IIIB) = assay: microbe, parasite or virus in culture; type: cell-based; details: for EC50: Human immunodeficiency virus 1, IIIB, MT4, read-out: EC50 IIIB; for SI IIIB: ratio of CC50/EC50
[4] = system: HIV-1 L100I mutant strain; assay: microbe, parasite or virus in culture; type: cell-based; details: for SI L100I: CC50/EC50; for EC50: Human immunodeficiency virus 1, MT4, read-out: EC50 L100I; for RF L100I: ratio of EC50 (resistant viral strain)/EC50 (wild-type viral strain)
HIV-2 strain (ROD) = assay: Anti-HIV-2; type: cell-based; details: for EC50: Human immunodeficiency virus 2, MT4, read-out: EC50 ROD; for SI ROD: ratio of CC50/EC50
[5] = system: HIV-1 RES056 (K103N + Y181C) double-mutant strain; assay: microbe, parasite or virus in culture; type: cell-based; details: for SI RES056: CC50/EC50; for EC50: Human immunodeficiency virus 1, MT4, read-out: EC50 RES056; for RF RES056: ratio of EC50 (resistant viral strain)/EC50 (wild-type viral strain)
[6] = system: HIV-1 F227L + V106A double-mutant strain; assay: microbe, parasite or virus in culture; type: cell-based; details: for SI F227L + V106A: CC50/EC50; for EC50: Human immunodeficiency virus 1, MT4, read-out: EC50 F227L + V106A; for RF F227L + V106A: ratio of EC50 (resistant viral strain)/EC50 (wild-type viral strain)
[7] = system: HIV-1 Y188L mutant strain; assay: microbe, parasite or virus in culture; type: cell-based; details: for SI Y188L: CC50/EC50; for EC50: Human immunodeficiency virus 1, MT4, read-out: EC50 Y188L; for RF Y188L: ratio of EC50 (resistant viral strain)/EC50 (wild-type viral strain)
[8] = system: HIV-1 K103N mutant strain; assay: microbe, parasite or virus in culture; type: cell-based; details: for SI K103N: CC50/EC50; for EC50: Human immunodeficiency virus 1, MT4, read-out: EC50 K103N; for RF K103N: ratio of EC50 (resistant viral strain)/EC50 (wild-type viral strain)

Structure (SMILES)	CC50 at 5 days [1]	IC50 (WT HIV-1 RT)	SI E138K [2]	EC50 [2]	RF E138K [2]	SI Y181C [3]	EC50 [3]	RF Y181C [3]	EC50 (WT HIV-1 (IIIB))	SI IIIB (WT HIV-1 (IIIB))	SI L100I [4]	EC50 [4]	RF L100I [4]	EC50 (HIV-2 strain (ROD))	SI ROD (HIV-2 strain (ROD))	SI RES056 [5]	EC50 [5]	RF RES056 [5]	SI F227L + V106A [6]	EC50 [6]	also measured
Cc1cc(-c2ccco2)cc(C)c1Oc1nc(NC2CCN(Cc3ccc(S(N)(=O)=O)cc3)CC2)nc2ccsc12 [Compound 11, 4-((4-((4-(4-(Furan-2-yl)-2,6-dimethylphenoxy)thieno[3,2-d]pyrimidin-2-yl)amino)piperidin-1-yl)methyl)benzenesulfonamide]	13500 ± 3940 nM	243 ± 37 nM	271	49.9 ± 0.35 nM	2.8	213	63.5 ± 8.75 nM	3.6	17.7 ± 4.83 nM	762	151	89.3 ± 23 nM	5.0	4150 ± 1780 nM	3	24	565 ± 22.5 nM	31.9	158	85.7 ± 9.71 nM	RF F227L + V106A [6]: 4.8; SI Y188L [7]: 253; EC50 [7]: 53.4 ± 2.15 nM; RF Y188L [7]: 3.0; SI K103N [8]: 651; EC50 [8]: 20.7 ± 2.75 nM; RF K103N [8]: 1.2
Cc1cc(-c2ccco2)cc(C)c1Oc1nc(NC2CCN(Cc3ccc(C(N)=O)cc3)CC2)nc2ccsc12 [Compound 12, 4-((4-((4-(4-(Furan-2-yl)-2,6-dimethylphenoxy)thieno[3,2-d]pyrimidin-2-yl)amino)piperidin-1-yl)methyl)benzamide]	28900 ± 15600 nM	901 ± 45 nM	101	287 ± 4.98 nM	3.1	57	511 ± 77.2 nM	5.5	93.3 ± 82.8 nM	310	70	414 ± 37.9 nM	4.4	25300 nM	1	10	2900 ± 119 nM	31.1	26	1110 ± 269 nM	RF F227L + V106A [6]: 11.9; SI Y188L [7]: 94; EC50 [7]: 307 ± 58.2 nM; RF Y188L [7]: 3.3; SI K103N [8]: 224; EC50 [8]: 129 ± 5.87 nM; RF K103N [8]: 1.4
